According to patent publication US20110097745A1, “Method For Detecting Microbes” (priority 2007, published 2011):
Converted amounts (≈) assume the structure as drawn.

Legend:
E. coli (W4110) = test: overnight disk diffusion test; format: cell-based; settings: 16 hrs 37 C
Procedure: (§1) Infecting bacteria (10^6 cells/ml from overnight grown cultures) were spread on LA plates on which 15 mm disks, saturated with various antibiotics, had been placed. After incubating the plates at 37 degrees Celsius for 16 hrs the zone of inhibition was determined for each strain. (Abbreviations used in FIG. 1a and Table 1a: CAP—Chloramphenicol; KAN—Kanamycin; AMP—Ampicillin; CEP—Cephamezin GEN—Gentamycin).

S. typhimirium (772) = test: overnight disk diffusion test; format: cell-based; settings: 16 hrs 37 C
Procedure: as §1

[1] = tested on: infecting bacteria of urine samples; test: antibiotics disc inhibition zone, urine samples (standard analysis); format: cell-based
Procedure: A standard analysis (urine culture colony count) was performed to evaluate bacterial load (Table 5a) and antibiotic susceptibility (Table 5b).

[2] = tested on: infecting bacteria of urine samples; test: BLT antibiotic susceptibility of urine samples; format: cell-based; parameters: BLT (luminescence): unit not given here; settings: for BLT (luminescence): 3 hrs 37 C, concentrations given in Table 5; on antibiotic susceptibility of urine samples: key: R = resistant; S = susceptible
Procedure: Six fresh urine samples were obtained from a local clinic and examined for bacteriuria (>10^5 cells/mL urine) and the antibiotic susceptibility of the infecting bacteriuria. A tube containing a an antibiotic mixture that would eliminate all infecting bacteria but not effect the lux cells (Ampicillin, Kanamycin, Tetracyclin, and Chloramphenicol) served as a control.
Each urine sample was diluted in Medium 1 to yield a final concentration of 3%. 0.1 mL of the diluted samples were then incubated for 3 hrs. at 37 degrees Celsius in a microtitre plate, with or without an antimicrobial substance at the concentrations given in Table 5).
An equal volume of Medium 2 containing 10 ng/ml autoinducer and supplemented with 10^6 of the lux cells was then added to each well. The microtiter plate was then incubated at 28 degrees/Celsius and the luminescence was measured using a plate reader luminometer.
Luminescence was measured in the absence of antibiotics, in the presence of a mixture of antibiotics and in the presence of a single antibiotic from the mixture.
When the ratio of the luminescence measured in the presence of the single antibiotic to that measured in the presence of the antibiotic mix exceeds a second predetermined constant (e.g. 3) then the infecting bacteria are […] to the antibiotic.

S. typhi = test: microbe, parasite or virus in culture; format: cell-based
P. aeroginosa = test: overnight disk diffusion test; format: cell-based; settings: disk 10 ppm, 16 hrs 37 C
Procedure: as §1

S. aureus = test: BLT (bioluminescence test) MIC determination

| Compound | antibiotic susceptibility of urine samples ([2]; urine sample 1) | BLT (luminescence) ([2]; urine sample 1, 3% urine) | antibiotic susceptibility of urine samples ([2]; urine sample 2) | BLT (luminescence) ([2]; urine sample 2, 3% urine) | antibiotic susceptibility of urine samples ([2]; urine sample 3) | BLT (luminescence) ([2]; urine sample 3, 3% urine) | antibiotic susceptibility of urine samples ([2]; urine sample 4) | BLT (luminescence) ([2]; urine sample 4, 3% urine) | antibiotic susceptibility of urine samples ([2]; urine sample 5) | BLT (luminescence) ([2]; urine sample 5, 3% urine) | antibiotic susceptibility of urine samples ([2]; urine sample 6) | BLT (luminescence) ([2]; urine sample 6, 3% urine) | Antibiotics disc inhibition zone ([1]; urine sample 1, 30 ppm) | Antibiotics disc inhibition zone ([1]; urine sample 2, 30 ppm) | Antibiotics disc inhibition zone ([1]; urine sample 3, 30 ppm) | Antibiotics disc inhibition zone ([1]; urine sample 4, 30 ppm) | Antibiotics disc inhibition zone ([1]; urine sample 6, 30 ppm) | also measured |
| --- | --- | --- | --- | --- | --- | --- | --- | --- | --- | --- | --- | --- | --- | --- | --- | --- | --- | --- |
| CC1(C)S[C@@H]2[C@H](NC(=O)[C@H](N)c3ccccc3)C(=O)N2[C@H]1C(=O)O [Ampicillin] | R | 1 | R | 0.144 | S | 5.11 | S | 30 | R | 0.42 | S | 18 |  |  |  |  |  | zone of inhibition (E. coli (W4110); disk 40 ppm): 40 mm; zone of inhibition (S. typhimirium (772); disk 40 ppm): 30 mm; Antibiotics disc inhibition zone ([1]; urine sample 1, 40 ppm): 0 mm; Antibiotics disc inhibition zone ([1]; urine sample 2, 40 ppm): 0 mm; Antibiotics disc inhibition zone ([1]; urine sample 3, 40 ppm): 5 mm; Antibiotics disc inhibition zone ([1]; urine sample 4, 40 ppm): 7 mm; Antibiotics disc inhibition zone ([1]; urine sample 6, 40 ppm): 5 mm |
| CO/N=C(\C(=O)N[C@@H]1C(=O)N2C(C(=O)O)=C(COC(N)=O)CS[C@H]12)c1ccco1 [Cefuroxime] | S | 55 | S | 1.36 | S | 2.4 | S | 31 | S | 8.6 | S | 0.76 | 6 mm | 7 mm | 5 mm | 5 mm | 4 mm |  |
| Cc1nnc(SCC2=C(C(=O)O)N3C(=O)[C@@H](NC(=O)Cn4cnnn4)[C@H]3SC2)s1 [Cephamezin] | S | 61 | S | 2.3 | S | 21.8 | S | 30 | S | 16 | S | 36.8 | 7 mm | 5 mm | 7 mm | 5 mm | 6 mm | zone of inhibition (E. coli (W4110); disk 30 ppm): 30 mm; zone of inhibition (S. typhimirium (772); disk 30 ppm): 40 mm |
| NC[C@H]1O[C@H](O[C@H]2[C@H](O)[C@@H](O[C@H]3O[C@H](CO)[C@@H](O)[C@H](N)[C@H]3O)[C@H](N)C[C@@H]2N)[C@H](O)[C@@H](O)[C@@H]1O [Kanamicin, Kanamycin] | S | 64 | S | 42 | S | 49 | S | 30 | S | 16 | S | 38 | 5 mm | 5 mm | 5 mm | 2 mm | 1 mm | zone of inhibition (E. coli (W4110); disk 30 ppm): 25 mm; zone of inhibition (S. typhimirium (772); disk 30 ppm): 20 mm; LU, fold increase over control (no antibiotics added) (S. typhi; 0.117 ppm): 1.4; LU, fold increase over control (no antibiotics added) (S. typhi; 0.234 ppm): 1.62; LU, fold increase over control (no antibiotics added) (S. typhi; 0.468 ppm): 1.49; LU, fold increase over control (no antibiotics added) (S. typhi; 0.937 ppm): 1.82; LU, fold increase over control (no antibiotics added) (S. typhi; 1.875 ppm): 2.3; LU, fold increase over control (no antibiotics added) (S. typhi; 3.75 ppm): 2.45; LU, fold increase over control (no antibiotics added) (S. typhi; 7.5 ppm): 3.13; LU, fold increase over control (no antibiotics added) (S. typhi; 15 ppm): 5.79; LU, fold increase over control (no antibiotics added) (S. typhi; 30 ppm): 6.27; MIC (S. typhi; Salmonella enterica, TYPHI, lowest concentration giving two-fold increase of tester luminescence above control): ~1 µg/mL (≈ 2.06 µM) |
| Cc1onc(-c2ccccc2Cl)c1C(=O)N[C@@H]1C(=O)N2[C@@H]1SC(C)(C)[C@@H]2C(=O)[O-].[Na+] [Orbenil] | R | 0.8 | R | 0.087 | R | 0.76 | S | 30 | R | 0.63 | R | 0.18 |  |  |  |  |  | Antibiotics disc inhibition zone ([1]; urine sample 1, 10 ppm): 0 mm; Antibiotics disc inhibition zone ([1]; urine sample 2, 10 ppm): 0 mm; Antibiotics disc inhibition zone ([1]; urine sample 3, 10 ppm): 0 mm; Antibiotics disc inhibition zone ([1]; urine sample 4, 10 ppm): 6 mm; Antibiotics disc inhibition zone ([1]; urine sample 6, 10 ppm): 0 mm |
| CC1(C)S[C@@H]2[C@H](NC(=O)Cc3ccccc3)C(=O)N2[C@H]1C(=O)O [Penicillin G] | R | 0.5 | R | 0.93 | S | 4 | S | 30 | R | 0.417 | S | 11 |  |  |  |  |  | Antibiotics disc inhibition zone ([1]; urine sample 1, 40 ppm): 0 mm; Antibiotics disc inhibition zone ([1]; urine sample 2, 40 ppm): 0 mm; Antibiotics disc inhibition zone ([1]; urine sample 3, 40 ppm): 3 mm; Antibiotics disc inhibition zone ([1]; urine sample 4, 40 ppm): 7 mm; Antibiotics disc inhibition zone ([1]; urine sample 6, 40 ppm): 2 mm |
| Gentamycin [Gentamicin] | S | 53 | S | 44 | S | 30 | S | 36 | S | 11.5 | S | 35 |  |  |  |  |  | zone of inhibition (E. coli (W4110); disk 10 ppm): 15 mm; zone of inhibition (P. aeroginosa): 20 mm; zone of inhibition (S. typhimirium (772); disk 10 ppm): 20 mm; Antibiotics disc inhibition zone ([1]; urine sample 1, 10 ppm): 4 mm; Antibiotics disc inhibition zone ([1]; urine sample 2, 10 ppm): 5 mm; Antibiotics disc inhibition zone ([1]; urine sample 3, 10 ppm): 6 mm; Antibiotics disc inhibition zone ([1]; urine sample 4, 10 ppm): 2 mm; Antibiotics disc inhibition zone ([1]; urine sample 6, 10 ppm): 5 mm; LU, fold increase over control (no antibiotics added) (S. aureus; 0.39 ppm): 1.2; LU, fold increase over control (no antibiotics added) (S. aureus; 0.781 ppm): 1.2; LU, fold increase over control (no antibiotics added) (S. aureus; 1.562 ppm): 1.3; LU, fold increase over control (no antibiotics added) (S. aureus; 3.125 ppm): 1.5; LU, fold increase over control (no antibiotics added) (S. aureus; 6.25 ppm): 3.1; LU, fold increase over control (no antibiotics added) (S. aureus; 12.5 ppm): 3.6; LU, fold increase over control (no antibiotics added) (S. aureus; 25 ppm): 3.4; LU, fold increase over control (no antibiotics added) (S. aureus; 50 ppm): 6.5; MIC (S. aureus; lowest concentration giving two-fold increase of tester luminescence above control): 3.12-6.2 ppm |
